Data on three molecules can be found in patent US11896604B2, “Composition comprising HMSs/HMOs and use thereof” (Glycom A/S, priority 2014, dated 2024).

For assay [1], the system named is human LS174T cell culture model of goblet cells. As to the kind of experiment: Mucosal barrier function: goblet cell gene expression by quantitative RT-PCR. Type of assay: cell-based. The following applies: 5 mg HMO/ml, compared to control cultures. As for the experimental part:
2′-FL and LNnT are tested with respect to their ability to induce MUC2, TFF3, EIMβ, CHST5, and GAL3ST2 expression in the human LS174T cell culture model of goblet cells. The human LS174T cell line is obtained from the American Type Culture Collection (ATCC). LS174T cells are maintained in minimum essential medium (MEM) supplemented according to instructions at 37° C. in 5% CO2. 2′-FL and LNnT are dissolved in cell culture grade water to the required concentration. The LS174T cells are treated with the HMO solution containing 0 or 5 mg HMO/ml. The LS174T cells are collected and suspended in Trizol reagent and total RNA is isolated using an RNA analysis kit (Qiagen) according to the manufacturer's instructions and the RNA isolates are quantified using Nanodrop analysis (Thermo Fisher Scientific). RNA isolates are reverse transcribed using a high capacity cDNA Reverse Transcription Kit (Applied Biosystems) to create cDNA, which is then used to assess gene expression via quantitative RT-PCR. For the quantitative RT-PCR, specific TaqMAN gene expression assays are obtained from Applied Biosystems, which include expression assays for MUC2, TFF3, CHST5 and GAL3ST2. Quantitative real-time PCR is performed using TaqMAN PCR Master Mix (Applied Biosystems). Reactions are run in duplicates in a 384-well plate using an Applied Biosystems 7900HT Fast Real-Time PCR System. The results are analysed using SDS 2.3 software and calculated by delta delta Ct method. All samples are normalized to Gus-β expression and fold induction is calculated over untreated controls. Gene expression is expressed as fold increase compared to HMO-free control cells. The experiment is repeated three times.

Another assay has as its system IBS-D patients. The following applies: cited from earlier work.

In the case of 2′-fucosyllactose [2′-FL], in assay [1], the “expression of the MUC2 gene” value is on record as “increases”, the “expression of the TFF3 gene” value was “increases”, the “induction of CHST5” value is on record as “minimal induction” and the “induction of GAL3 ST2” value is recorded as “lack of induction”.

In the case of `CC(=O)N[C@H]1[C@H](O[C@H]2[C@@H](O)[C@@H](CO)O[C@@H](O[C@H]3[C@H](O)[C@@H](O)C(O)O[C@@H]3CO)[C@@H]2O)O[C@H](CO)[C@@H](O[C@@H]2O[C@H](CO)[C@H](O)[C@H](O)[C@H]2O)[C@@H]1O` (mixture of isomers) [LNnT, lacto-N-neotetraose], in assay [1], the “expression of the MUC2 gene” value is “increases”, the “expression of the TFF3 gene” value is reported as “increases”, the “induction of CHST5” value is listed as “minimal induction” and the “induction of GAL3 ST2” value is given as “lack of induction”.

Turning to `CO[C@H]1/C=C/O[C@@]2(C)Oc3c(C)c(O)c4c(O)c(c5c(nc6cc(C)ccn65)c4c3C2=O)NC(=O)/C(C)=C\C=C\[C@H](C)[C@H](O)[C@@H](C)[C@@H](O)[C@@H](C)[C@H](OC(C)=O)[C@@H]1C` [rifaximin], the bowel movement entry in the assay with IBS-D patients is “reduce”.
